In data set [1] the test system is cytochrome c oxidase in E. coli. Kind of data set: Chronoamperometry of drop-cast bacteria, turnover number per single bacterium. The format is cell-based, Escherichia coli. How it is done: (§1) For the localized electrochemical recognition of cytochrome c oxidases in bacteria, target cultures were immobilized onto a gold macroelectrode by drop-casting and immersed into a solution of PBS, containing 1.7 mM TMPD^+• (FIG. 3). The radical cation can be reduced electrochemically at the electrode to TMPD, providing the substrate for the target bacteria to oxidise and convert TMPD back to TMPD^+•. The chemical oxidation of TMPD to TMPD^+• can then be observed electrochemically.
A 3 mm (diameter) gold macroelectrode (Alvatek Ltd, UK) was used as the working electrode for all bioelectrochemical measurements. After polishing, sonication of the macroelectrode was applied for 2 minutes to assure removal of alumina powder from the electrode surface. Bacteria were immobilized onto the electrode by drop casting. For this purpose, the macroelectrode was placed in an electrode holder inside a 50 mL falcon tube, keeping it in an upright position. Bacteria suspension was diluted so that all depositions consisted of 3 μL bacteria suspension representing monolayer concentrations of 0.5 to 30. The falcon tube was closed and the bacteria suspension dried under N2 flow. Evaporation was monitored by eye and N2 flow was stopped the moment all liquid was evaporated. The electrode was removed from the holder and was placed in the electrochemical set up. The electrochemical cell remained thermostated to 37° C. throughout the experiments.
Chronoamperometry was carried out immediately after drop-casting of bacteria to minimize cell death at the electrode. […]
E. coli bacteria, cultured under aerobic conditions, were then investigated. […] The enhanced electrochemical signal in the presence of E. coli can also be recorded during cyclic voltammetry. However, due to the small current range detected, scan rates as low as 2 mV s^−1 need to be applied in order to visualize the oxidation process of TMPD by the bacteria. […] Consequently, chronoamperometry measurements were chosen for quantitative analyses. […]

The subject of data set [2] is cytochrome c oxidase in B. subtilis. Described as above. The following applies: B. subtilis grown on agar; current at 8 s; 37° C. The format is cell-based, Bacillus subtilis. On the procedure: as §1
A 3 mm (diameter) gold macroelectrode (Alvatek Ltd, UK) was used as the working electrode for all bioelectrochemical measurements. After polishing, sonication of the macroelectrode was applied for 2 minutes to assure removal of alumina powder from the electrode surface. Bacteria were immobilized onto the electrode by drop casting. […] Evaporation was monitored by eye and N2 flow was stopped the moment all liquid was evaporated. […]
As during drop-casting both living and dead bacteria in a solution are deposited at an electrode, flow cytometry measurements were performed to estimate the percentage of living cells in solution that contribute to the electrochemical signal (FIG. 7). […] Taking the electrochemical current during chronoamperometry (measurement point at 8 s), a turnover number was determined. […] As such, a turnover number per single bacterium (Tsb) could be calculated using the equation: […]

The nature of data set [3]: Cyclic voltammetry of TMPD-BF4 at gold macroelectrode with DigiSim simulation. The format is physicochemical. On the procedure: [formula] in which C is the concentration, Iss represents the steady state current, F is the Faraday constant, D is the diffusion coefficient and a is the radius of the electroactive surface of the microelectrode), and its electrochemical behaviour was analysed using cyclic voltammetry. […] Various scan rates, ranging from 30 to 300 mV s^−1, were applied. As the singly oxidized form of TMPD, the TMPD^+• radical cation can be reduced to TMPD and oxidized to TMPD^2+: TMPD^+•+e^− ? TMPD (1) TMPD^2++e^− ? TMPD^+• (2)
in which only the first redox reaction is fully reversible,[25] and will be the focus of this method. Using the commercial simulation software DigiSim® (Basi), theoretical curves were fitted to the experimental data.[26-30] […] A diffusion coefficient DTMPD-BF4 of 1.0×10^−5 cm^2 s^−1 was determined for a solution temperature of 37° C. and fixed in the DigiSim® program. Detailed information about the calculation of DTMPD-BF4 can be found below. Following the approach in the literature,[31] the redox reaction (1) was simulated to determine the Butler-Volmer kinetic parameters of TMPD^+• reduction at the macroelectrode and a fitting of the concentration-independent heterogeneous standard electrochemical rate constant (ks), as well as the standard electrode potential E0, was conducted. To account for minor solution changes related to the oxidation of TMPD by oxygen, the initial concentration ratio of TMPD to TMPD^+• was slightly adjusted for each scan without changing the overall shape or position of the simulated curves. This allowed an offset correction for the presented curves and a capacitive contribution of between 10 to 30 μF was attributed. From the simulations, the standard electrochemical rate constant ks was determined to be equal to or greater than 0.025 cm s^−1, and a standard electrode potential E0 of 0.013 (±0.001) V vs. SCE was determined. […]
A diffusion coefficient (DTMPD-BF4) of 1×10^−5 cm^2 s^−1 was found following the reversible Randles-Ševčík method. […] The diffusion coefficient was determined using the equation

Turning to `CN(C)c1ccc(N(C)C)cc1` [TMPD, N,N,N′,N′-tetramethyl-para-phenylene diamine], the “turnover number per single bacterium (Tsb)” value in data set [1] (E. coli grown aerobically (exponential phase)) is recorded as 3.8 (±0.06)×10^8 L mol^−1 s^−1; in data set [1] (E. coli grown in broth to the stationary phase), 1.8 (±0.3)×10^9 L mol^−1 s^−1; in data set [1] (E. coli grown to the exponential phase (aerobic), current at 8 s), 3.8 (±0.06)×10^8 L mold s^−1; in data set [2] it was 9.8 (±0.3)×10^8 L mol^−1 s^−1.

For the compound “N,N,N′,N′-tetramethyl-para-phenylene diamine tetrafluoroborate [TMPD-BF4]”, in data set [3] (2.1 mM TMPD-BF4 in PBS pH 7.4, 37° C., Randles-Ševčík, 3 mm gold electrode), the “diffusion coefficient DTMPD-BF4” value was 1×10^−5 cm^2 s^−1. In addition, in data set [3] (TMPD^+• reduction at gold macroelectrode, fitted by simulation), the “standard electrochemical rate constant ks” value is at least 0.025 cm/s. Also, the “standard electrode potential E0” value in data set [3] (TMPD^+•/TMPD couple, fitted by simulation) is 0.013 (±0.001) V vs. SCE.

The values above are taken from patent publication US11834697B2, “Electrochemical recognition and quantification of cytochrome c oxidase expression in bacteria” (OXFORD UNIVERSITY INNOVATION LIMITED, priority 2017, dated 2023).
